Read-outs that look alike come from different tables or passages of the source.
Test system: C. difficile R20291 spores
Assay: C. difficile spore germination assay (optical density, OD580)
[1] = Clostridioides difficile, R20291SPORES, Table 3, 6 mM taurocholate, 12 mM glycine
[2] = Clostridioides difficile, R20291SPORES, read-out: % Germination, Table 3, compound 125 μM, 6 mM taurocholate, 12 mM glycine, ± standard deviation
[3] = Table 4, compound 125 uM, 6 mM taurocholate, 12 mM glycine, ± standard deviation
[4] = Clostridioides difficile, R20291SPORES, Table 2, 6 mM taurocholate, 12 mM glycine
[5] = Clostridioides difficile, R20291SPORES, read-out: % Germination, Table 2, compound 125 μM, 6 mM taurocholate, 12 mM glycine, ± standard deviation
[6] = Clostridioides difficile, R20291SPORES, read-out: % Germination (125 μM), Table 5, compound 125 μM, 6 mM taurocholate, 12 mM glycine, 100% indicates no inhibition
[7] = Clostridioides difficile, R20291SPORES, Table 4, 6 mM taurocholate, 12 mM glycine
[8] = Clostridioides difficile, R20291SPORES, Table 5, 6 mM taurocholate, 12 mM glycine

Structure (SMILES): C[C@H](CCc1nc2ccccc2c(=O)[nH]1)[C@H]1CC[C@H]2[C@@H]3[C@H](O)C[C@@H]4C[C@H](O)CC[C@]4(C)[C@H]3C[C@H](O)[C@]12C [Compound 43]
- IC50 [1]: 20 ± 11 µM
- activity at 125 µM [2]: 32 ± 0.6%

Structure (SMILES): C[C@H](CCc1nc2ccccc2s1)[C@H]1CC[C@H]2[C@@H]3[C@H](O)C[C@@H]4C[C@H](O)CC[C@]4(C)[C@H]3C[C@H](O)[C@]12C [Compound 49]
- % Germination [3]: 81 ± 2%

Structure (SMILES): C[C@H](CCC(=O)N1CCc2ccccc21)[C@H]1CC[C@H]2[C@@H]3[C@H](O)C[C@@H]4C[C@H](O)CC[C@]4(C)[C@H]3C[C@H](O)[C@]12C [Compound 1]
- IC50 [4]: 1 ± 0.3 µM
- activity at 125 µM [5]: 4 ± 1%
- IC50 (Clostridioides difficile, R20291SPORES, read-out: IC50 against the R20291 strain, R20291 strain): 1 µM

Structure (SMILES): Cc1ccc2c(c1)CCN2C(=O)CC[C@@H](C)[C@H]1CC[C@H]2[C@@H]3[C@H](O)C[C@@H]4C[C@H](O)CC[C@]4(C)[C@H]3C[C@H](O)[C@]12C [Compound 3]
- activity at 125 µM [5]: 100%

Structure (SMILES): Cc1ccc(F)cc1NC(=O)CC[C@@H](C)[C@H]1CC[C@H]2[C@@H]3CC[C@@H]4C[C@H](O)CC[C@]4(C)[C@H]3C[C@H](O)[C@]12C [Compound 60]
- activity at 125 µM [6]: 65 ± 0.9%

Structure (SMILES): C[C@H](CCc1nc2ccccc2[nH]1)[C@H]1CC[C@H]2[C@@H]3[C@H](O)C[C@@H]4C[C@H](O)CC[C@]4(C)[C@H]3C[C@H](O)[C@]12C [Compound 46]
- IC50 [7]: 6 ± 1 µM
- activity at 125 µM (Clostridioides difficile, R20291SPORES, read-out: % Germination, Table 4, compound 125 uM, 6 mM taurocholate, 12 mM glycine, ± standard deviation): 23 ± 5%

Structure (SMILES): C[C@H](CCC(=O)Nc1ccccc1)[C@H]1CC[C@H]2[C@@H]3CC[C@@H]4C[C@H](O)CC[C@]4(C)[C@H]3C[C@H](O)[C@]12C [Compound 57]
- IC50 [8]: 1.3 ± 0.1 µM
- activity at 125 µM [6]: 3 ± 0.2%

Structure (SMILES): C[C@H](CCC(=O)Nc1ccccc1)[C@H]1CC[C@H]2[C@@H]3CC[C@@H]4C[C@H](O)CC[C@]4(C)[C@H]3CC[C@]12C [Compound 61]
- activity at 125 µM [6]: 100%

Structure (SMILES): COc1ccc2c(c1)CCN(C(=O)CC[C@@H](C)[C@H]1CC[C@H]3[C@@H]4[C@H](O)C[C@@H]5C[C@H](O)CC[C@]5(C)[C@H]4C[C@H](O)[C@]13C)C2 [Compound 12]
- activity at 125 µM [5]: 100%

Structure (SMILES): C[C@H](CCc1ncc2ccc(Cl)cc2n1)[C@H]1CC[C@H]2[C@@H]3[C@H](O)C[C@@H]4C[C@H](O)CC[C@]4(C)[C@H]3C[C@H](O)[C@]12C [Compound 36]
- activity at 125 µM [2]: 89 ± 10%

Structure (SMILES): C[C@H](CCC(=O)Nc1cccc(F)c1)[C@H]1CC[C@H]2[C@@H]3[C@@H](O)C[C@]4(C)C[C@H](O)CC[C@]4(C)[C@H]3CC[C@]12C [Compound 67]
- activity at 125 µM [6]: 100%

Structure (SMILES): COc1cc2cnc(CC[C@@H](C)[C@H]3CC[C@H]4[C@@H]5[C@H](O)C[C@@H]6C[C@H](O)CC[C@]6(C)[C@H]5C[C@H](O)[C@]34C)nc2cc1OC [Compound 39]
- activity at 125 µM [2]: 78 ± 3%

Structure (SMILES): C[C@H](CCc1nc(-c2ccccc2)c2ccccc2n1)[C@H]1CC[C@H]2[C@@H]3[C@H](O)C[C@@H]4C[C@H](O)CC[C@]4(C)[C@H]3C[C@H](O)[C@]12C [Compound 31]
- activity at 125 µM [2]: 92 ± 4%

Structure (SMILES): COc1ccc2c(c1)N(C(=O)CC[C@@H](C)[C@H]1CC[C@H]3[C@@H]4[C@H](O)C[C@@H]5C[C@H](O)CC[C@]5(C)[C@H]4C[C@H](O)[C@]13C)CC2 [Compound 7]
- activity at 125 µM [5]: 100%

Structure (SMILES): C[C@H](CCc1nc2ccccc2s1)[C@H]1CC[C@H]2[C@@H]3[C@H](O)C[C@@H]4C[C@H](O)CC[C@]4(C)[C@H]3C[C@H](O)[C@]12C [Compound 48]
- % Germination [3]: 88 ± 5%

Structure (SMILES): COc1ccccc1NC(=O)CC[C@@H](C)[C@H]1CC[C@H]2[C@@H]3[C@H](O)C[C@@H]4C[C@H](O)CC[C@]4(C)[C@H]3CC[C@]12C [Compound 54]
- IC50 [8]: 6 ± 1 µM
- activity at 125 µM [6]: 31 ± 2%

Structure (SMILES): C[C@H](CCc1nc2ccccc2[nH]1)[C@H]1CC[C@H]2[C@@H]3[C@H](O)C[C@@H]4C[C@H](O)CC[C@]4(C)[C@H]3C[C@H](O)[C@]12C [Compound 45]
- IC50 (Table 4, 6 mM taurocholate, 12 mM glycine): 12 ± 7 µM
- % Germination [3]: 18 ± 2%

Structure (SMILES): C[C@H](CCC(=O)Nc1cccc(F)c1)[C@H]1CC[C@H]2[C@@H]3CC[C@@H]4C[C@H](O)CC[C@]4(C)[C@H]3CC[C@]12C [Compound 63]
- activity at 125 µM [6]: 100%

Structure (SMILES): C[C@H](CCC(=O)N(C)c1ccccc1)[C@H]1CC[C@H]2[C@@H]3[C@H](O)C[C@@H]4C[C@H](O)CC[C@]4(C)[C@H]3C[C@H](O)[C@]12C [Compound 14]
- IC50 [4]: 32 ± 5 µM
- activity at 125 µM [5]: 31 ± 2%

Structure (SMILES): C[C@H](CCC(=O)Nc1cccc(F)c1)[C@H]1CC[C@H]2[C@@H]3[C@H](O)C[C@@H]4C[C@H](O)CC[C@]4(C)[C@H]3CC[C@]12C [Compound 55]
- activity at 125 µM [6]: 100%

Structure (SMILES): C[C@H](CCc1ncc2cc(F)c(F)cc2n1)[C@H]1CC[C@H]2[C@@H]3[C@H](O)C[C@@H]4C[C@H](O)CC[C@]4(C)[C@H]3C[C@H](O)[C@]12C [Compound 41]
- activity at 125 µM [2]: 70 ± 23%

Structure (SMILES): COc1ccccc1NC(=O)CC[C@@H](C)[C@H]1CC[C@H]2[C@@H]3CC[C@@H]4C[C@H](O)CC[C@]4(C)[C@H]3CC[C@]12C [Compound 58]
- IC50 [8]: 2.4 ± 0.3 µM
- % Germination (125 μM) (Table 5, compound 125 μM, 6 mM taurocholate, 12 mM glycine, 100% indicates no inhibition): 0.4 ± 3%

Structure (SMILES): C[C@H](CCC(=O)N1CCc2cc(F)ccc21)[C@H]1CC[C@H]2[C@@H]3[C@H](O)C[C@@H]4C[C@H](O)CC[C@]4(C)[C@H]3C[C@H](O)[C@]12C [Compound 4]
- IC50 [4]: 0.4 ± 0.04 µM
- activity at 125 µM [5]: 5 ± 3%

Structure (SMILES): C[C@H](CCC(=O)N1CCc2ccccc2C1)[C@H]1CC[C@H]2[C@@H]3[C@H](O)C[C@@H]4C[C@H](O)CC[C@]4(C)[C@H]3C[C@H](O)[C@]12C [Compound 11]
- activity at 125 µM [5]: 78 ± 2%

Structure (SMILES): COc1ccc2cnc(CC[C@@H](C)[C@H]3CC[C@H]4[C@@H]5[C@H](O)C[C@@H]6C[C@H](O)CC[C@]6(C)[C@H]5C[C@H](O)[C@]34C)nc2c1 [Compound 37]
- activity at 125 µM [2]: 61 ± 5%

Structure (SMILES): C[C@H](CCc1ncc2c(F)cccc2n1)[C@H]1CC[C@H]2[C@@H]3[C@H](O)C[C@@H]4C[C@H](O)CC[C@]4(C)[C@H]3C[C@H](O)[C@]12C [Compound 32]
- activity at 125 µM [2]: 36 ± 6%

Structure (SMILES): Cc1ccc(F)cc1NC(=O)CC[C@@H](C)[C@H]1CC[C@H]2[C@@H]3[C@H](O)C[C@@H]4C[C@H](O)CC[C@]4(C)[C@H]3CC[C@]12C [Compound 56]
- activity at 125 µM [6]: 66 ± 6%

Structure (SMILES): C[C@H](CCc1nc2ccccc2o1)[C@H]1CC[C@H]2[C@@H]3[C@H](O)C[C@@H]4C[C@H](O)CC[C@]4(C)[C@H]3C[C@H](O)[C@]12C [Compound 50]
- IC50 [7]: 6 ± 3 µM
- % Germination [3]: −4 ± 0.8%

Structure (SMILES): C[C@H](CCc1ncc2cc(F)ccc2n1)[C@H]1CC[C@H]2[C@@H]3[C@H](O)C[C@@H]4C[C@H](O)CC[C@]4(C)[C@H]3C[C@H](O)[C@]12C [Compound 33]
- IC50 [1]: 28 ± 4 µM
- activity at 125 µM [2]: 7 ± 3%

Structure (SMILES): C[C@H](CCC(=O)N1CCc2c(Cl)cccc21)[C@H]1CC[C@H]2[C@@H]3[C@H](O)C[C@@H]4C[C@H](O)CC[C@]4(C)[C@H]3C[C@H](O)[C@]12C [Compound 2]
- activity at 125 µM [5]: 95 ± 8%

Structure (SMILES): C[C@H](CCC(=O)Nc1cccc(F)c1)[C@H]1CC[C@H]2[C@@H]3CC[C@@H]4C[C@H](O)CC[C@]4(C)[C@H]3C[C@H](O)[C@]12C [Compound 59]
- activity at 125 µM [6]: 59 ± 5%

Structure (SMILES): C[C@H](CCC(=O)Nc1ccccc1)[C@H]1CC[C@H]2[C@@H]3[C@@H](O)C[C@@H]4C[C@H](O)CC[C@]4(C)[C@H]3CC[C@]12C [Compound 65]
- activity at 125 µM [6]: 57 ± 0.8%

Structure (SMILES): Cc1ccc2c(c1)CCCN2C(=O)CC[C@@H](C)[C@H]1CC[C@H]2[C@@H]3[C@H](O)C[C@@H]4C[C@H](O)CC[C@]4(C)[C@H]3C[C@H](O)[C@]12C [Compound 9]
- activity at 125 µM [5]: 100%

Structure (SMILES): COc1ccccc1NC(=O)CC[C@@H](C)[C@H]1CC[C@H]2[C@@H]3[C@@H](O)C[C@]4(C)C[C@H](O)CC[C@]4(C)[C@H]3CC[C@]12C [Compound 66]
- activity at 125 µM [6]: 100%

Structure (SMILES): C[C@H](CCC(=O)N1CCc2cc(Cl)ccc21)[C@H]1CC[C@H]2[C@@H]3[C@H](O)C[C@@H]4C[C@H](O)CC[C@]4(C)[C@H]3C[C@H](O)[C@]12C [Compound 5]
- activity at 125 µM [5]: 70 ± 3%

Structure (SMILES): Cc1ccc(F)cc1NC(=O)CC[C@@H](C)[C@H]1CC[C@H]2[C@@H]3[C@@H](O)C[C@@H]4C[C@H](O)CC[C@]4(C)[C@H]3CC[C@]12C [Compound 68]
- activity at 125 µM [6]: 100%

Structure (SMILES): C=CCN(CC=C)C(=O)CC[C@@H](C)[C@H]1CC[C@H]2[C@@H]3[C@H](O)C[C@@H]4C[C@H](O)CC[C@]4(C)[C@H]3C[C@H](O)[C@]12C [Compound 15]
- IC50 [4]: 8 ± 3 µM
- activity at 125 µM [5]: 0.9 ± 0.2%
